# According to ChEMBL document CHEMBL5543137, “Design and Synthesis of Novel Ultralong-Acting Peptides as EDP-EBP Interaction Inhibitors for Pulmonary Fibrosis Treatment” (J Med Chem, 2024):
# The source made the active and inactive calls. The calls are words filed in the database; no cut-off is given here. Starred links: 1 amine or outer side, 2 acyl side, 3 side chain; linkers in the order of their positions; H or OH if unused. Non-standard residues stand in square brackets, D forms with d. Residues, ends and D or L forms follow the SMILES beside them. *: point of attachment. C20 diacid = O=C(O)CCCCCCCCCCCCCCCCCCC(=O)*; γGlu = O=C(O)[C@H](CCC(=O)[*:2])N[*:1]; Iva = CC[C@](C)(N)C(=O)O; PEG2 = NCCOCCOCCC(=O)O
# Tests used:
# Mus musculus [1] = test: Antifibrotic activity against BLM-induced C57BL/6 mouse pulmonary fibrosis model assessed as downregulation of Timp1 gene expression in lung tissue at 150 ug/kg, sc administered for 2 weeks starting from 7 days post BLM induction and measured after 21 days post BLM induction by RT-qPCR assay; format: functional, organism-based; conditions: dose 150.0 µg/kg
# A549 [2] = test: Inhibition of EBP signaling pathway in TGFalpha induced human A549 cells assessed as reduction in PI3K phosphorylation at 10 uM incubated for 24 hrs by Western blotting analysis; format: cell-based
# Mus musculus [3] = test: Antifibrotic activity against BLM-induced C57BL/6 mouse pulmonary fibrosis model assessed as reduction in Acta2 gene expression at 240 ug/kg/day, sc administered for 2 weeks starting from 7 days post BLM induction and measured after 21 days post BLM induction by ScRNA-sequencing analysis; format: functional, organism-based; conditions: dose 240.0 µg/kg/day
# Mus musculus [4] = test: Antifibrotic activity against BLM-induced C57BL/6 mouse pulmonary fibrosis model at 240 ug/kg/day, sc administered for 2 weeks starting from 7 days post BLM induction and measured after 21 days post BLM induction in presence of Clo-Lip; format: functional, organism-based; conditions: dose 240.0 µg/kg/day
# Mus musculus [5] = test: Antifibrotic activity against BLM-induced C57BL/6 mouse pulmonary fibrosis model assessed as inhibition of activated fibroblast signature at 240 ug/kg/day, sc administered for 2 weeks starting from 7 days post BLM induction and measured after 21 days post BLM induction by gene enrichment analysis; format: functional, organism-based; conditions: dose 240.0 µg/kg/day
# Mus musculus [6] = test: Antifibrotic activity against BLM-induced C57BL/6 mouse pulmonary fibrosis model assessed as reduction in Thbs gene expression at 240 ug/kg/day, sc administered for 2 weeks starting from 7 days post BLM induction and measured after 21 days post BLM induction by ScRNA-sequencing analysis; format: functional, organism-based; conditions: dose 240.0 µg/kg/day
# Mus musculus [7] = test: Antifibrotic activity against BLM-induced C57BL/6 mouse pulmonary fibrosis model assessed as reduction in Fstl1 gene expression at 240 ug/kg/day, sc administered for 2 weeks starting from 7 days post BLM induction and measured after 21 days post BLM induction by ScRNA-sequencing analysis; format: functional, organism-based; conditions: dose 240.0 µg/kg/day
# A549 [8] = test: Antifibrotic activity against BLM-induced human A549 cells cocultured with RAW264.7 cells assessed as reduction in Vimentin expression at 10 uM after 24 hrs by Western blotting analysis; format: functional, cell-based
# Mus musculus [9] = test: Antifibrotic activity against BLM-induced C57BL/6 mouse pulmonary fibrosis model assessed as reduction in Ctgf gene expression at 240 ug/kg/day, sc administered for 2 weeks starting from 7 days post BLM induction and measured after 21 days post BLM induction by ScRNA-sequencing analysis; format: functional, organism-based; conditions: dose 240.0 µg/kg/day
# [10] = Binding affinity to EBP (unknown origin) by ITC method; parameters: species or system Homo sapiens
# A549 [11] = test: Antifibrotic activity against BLM-induced human A549 cells assessed as reduction in FN expression at 10 uM after 24 hrs by Western blotting analysis; format: functional, cell-based
# Mus musculus [12] = test: Antifibrotic activity against BLM-induced C57BL/6 mouse pulmonary fibrosis model assessed as downregulation of Acta2 gene expression in lung tissue at 150 ug/kg, sc administered for 2 weeks starting from 7 days post BLM induction and measured after 21 days post BLM induction by RT-qPCR assay; format: functional, organism-based; conditions: dose 150.0 µg/kg
# RAW264.7 [13] = test: Antifibrotic activity against BLM-induced mouse RAW264.7 cells assessed as upregulation of MMP-12 expression at 10 uM incubated for 6 to 24 hrs by ELISA; format: functional, cell-based; conditions: time 6-24 hrs
# RAW264.7 [14] = test: Upregulation of MMP-12 expression in mouse RAW264.7 cells at 10 uM incubated for 6 to 24 hrs; format: functional, cell-based; conditions: time 6-24 hrs
# Mus musculus [15] = test: Antifibrotic activity against BLM-induced C57BL/6 mouse pulmonary fibrosis model assessed as reduction in lung hydroxyproline content at 150 ug/kg, sc administered for 2 weeks starting from 7 days post BLM induction and measured after 21 days post BLM induction; format: functional, organism-based; conditions: dose 150.0 µg/kg
# Mus musculus [16] = test: Antifibrotic activity against BLM-induced C57BL/6 mouse pulmonary fibrosis model assessed as downregulation of TNFalpha gene expression in lung tissue at 150 ug/kg, sc administered for 2 weeks starting from 7 days post BLM induction and measured after 21 days post BLM induction by RT-qPCR assay; format: functional, organism-based; conditions: dose 150.0 µg/kg
# RAW264.7 [17] = test: Antifibrotic activity against BLM-induced mouse RAW264.7 cells assessed as upregulation of MMP-12 mRNA expression at 10 uM incubated for 6 to 24 hrs by RT-qPCR analysis; format: functional, cell-based; conditions: time 6-24 hrs
# Mus musculus [18] = test: Antifibrotic activity against BLM-induced C57BL/6 mouse pulmonary fibrosis model assessed as reversal of body weight loss at 150 ug/kg, sc administered for 2 weeks starting from 7 days post BLM induction and measured after 21 days post BLM induction; format: functional, organism-based; conditions: dose 150.0 µg/kg
# Mus musculus [19] = test: Antifibrotic activity against BLM-induced C57BL/6 mouse pulmonary fibrosis model assessed as reduction in MMP-12 expression at 240 ug/kg/day, sc administered for 2 weeks starting from 7 days post BLM induction and measured after 21 days post BLM induction in presence of Clo-Lip; format: functional, organism-based; conditions: dose 240.0 µg/kg/day
# Mus musculus [20] = test: Antifibrotic activity against BLM-induced C57BL/6 mouse pulmonary fibrosis model assessed as reduction in Col5a1 gene expression at 240 ug/kg/day, sc administered for 2 weeks starting from 7 days post BLM induction and measured after 21 days post BLM induction by ScRNA-sequencing analysis; format: functional, organism-based; conditions: dose 240.0 µg/kg/day
# TC-1 = test: Inhibition of EBP signaling pathway in TGFalpha induced mouse TC-1 cells assessed as reduction in AKT phosphorylation at 10 uM incubated for 24 hrs by Western blotting analysis; format: cell-based
# Mus musculus [21] = test: Antifibrotic activity against BLM-induced C57BL/6 mouse pulmonary fibrosis model assessed as reduction in lung vimentin expression at 240 ug/kg/day, sc administered for 2 weeks starting from 7 days post BLM induction and measured after 21 days post BLM induction by Western blotting analysis; format: functional, organism-based; conditions: dose 240.0 µg/kg/day
# Mus musculus [22] = test: Antifibrotic activity against BLM-induced C57BL/6 mouse pulmonary fibrosis model assessed as reduction in vimentin gene expression at 240 ug/kg/day, sc administered for 2 weeks starting from 7 days post BLM induction and measured after 21 days post BLM induction by ScRNA-sequencing analysis; format: functional, organism-based; conditions: dose 240.0 µg/kg/day
# Mus musculus [23] = test: Antifibrotic activity against BLM-induced C57BL/6 mouse pulmonary fibrosis model assessed as reduction in alpha-SMA expression at 240 ug/kg/day, sc administered for 2 weeks starting from 7 days post BLM induction and measured after 21 days post BLM induction in presence of Clo-Lip; format: functional, organism-based; conditions: dose 240.0 µg/kg/day
# Mus musculus [24] = test: Antifibrotic activity against BLM-induced C57BL/6 mouse pulmonary fibrosis model assessed as increase in serum MMP-12 level at 30 to 240 ug/kg/day, sc administered for 2 weeks starting from 7 days post BLM induction and measured after 21 days post BLM induction; format: functional, organism-based; conditions: dose 30-240 µg/kg/day
# RAW264.7 [25] = test: Antifibrotic activity against BLM-induced mouse RAW264.7 cells assessed as upregulation of MMP-12 protein expression at 10 uM incubated for 6 to 24 hrs by Western blotting analysis; format: functional, cell-based; conditions: time 6-24 hrs
# Mus musculus [26] = test: Antifibrotic activity against BLM-induced sc dosed C57BL/6 mouse pulmonary fibrosis model assessed as reversal of body weight indices administered for 2 weeks starting from 7 days post BLM induction and measured after 21 days post BLM induction; format: functional, organism-based; conditions: dose 30-240 µg/kg
# Mus musculus [27] = test: Antifibrotic activity against BLM-induced sc dosed C57BL/6 mouse pulmonary fibrosis model assessed as reversal of lung indices administered for 2 weeks starting from 7 days post BLM induction and measured after 21 days post BLM induction; format: functional, organism-based; conditions: dose 30-240 µg/kg
compound,measurement,setting,value
CC[C@](C)(NC(=O)[C@@H](NC(=O)CCOCCOCCNC(=O)CCOCCOCCNC(=O)CC[C@H](NC(=O)CCCCCCCCCCCCCCCCCCC(=O)O)C(=O)O)C(C)C)C(=O)NCC(=O)N[C@@H](CO)C(=O)N1CCC[C@H]1C(=O)N[C@@H](CO)C(=O)N[C@@H](C)C(=O)N[C@@H](CCC(N)=O)C(=O)N[C@@H](CCC(=O)O)C(=O)N[C@@H](CCC(=O)O)C(=O)N[C@@H](C)C(=O)N[C@@H](CO)C(=O)N1CCC[C@H]1C(=O)N[C@@H](C)C(N)=O ({C20 diacid-γGlu-PEG2-PEG2}-V[Iva]GSPSAQEEASPA-NH2),Activity,Mus musculus [1],Active
same,inhibition,A549 [2],Active
same,Activity,Mus musculus [3],Active
same,Activity,Mus musculus [4],inactive
same,Activity,Mus musculus [5],Active
same,Activity,Mus musculus [6],Active
same,Activity,Mus musculus [7],Active
same,Activity,A549 [8],Active
same,Activity,Mus musculus [9],Active
same,Kd,[10],117 µM
same,Activity,A549 [11],Active
same,Activity,Mus musculus [12],Active
same,Activity,RAW264.7 [13],Active
same,Activity,RAW264.7 [14],inactive
same,Activity,Mus musculus [15],Active
same,Activity,Mus musculus [16],Active
same,Activity,RAW264.7 [17],Active
same,Activity,Mus musculus [18],Active
same,Activity,Mus musculus [19],inactive
same,Activity,Mus musculus [20],Active
same,inhibition,TC-1,Active
same,Activity,Mus musculus [21],Active
same,Activity,Mus musculus [22],Active
same,Activity,Mus musculus [23],inactive
same,Activity,Mus musculus [24],Active
same,Activity,RAW264.7 [25],Active
same,Activity,Mus musculus [26],Dose-Dependent Effect
same,Activity,Mus musculus [27],Dose-Dependent Effect
